Source: article PMC5190008, “BO-1055, a novel DNA cross-linking agent with remarkable low myelotoxicity shows potent activity in sarcoma models” (Oncotarget, 2016)

Columns and labels:
A673 spheroids = assay: Spheroid assay in 3D culture (methylcellulose); assay type: cell-based, human; conditions: A673 spheroids in methylcellulose, scored 14 days after plating
Method: A673 cells were seeded on flat bottom non attachment 24 well plates (1000 cells/well) in triplicate using 1.2 % methylcellulose (Dow Chemical, Waterloo, NY) mixed with 20% FCS and specified concentrations of BO-1055 or 4HC as shown in Figure 1D. Samples were incubated at 37°C / 5 % CO2 and colonies were scored 14 days after plating.

[1] = system: patient derived Ewing sarcoma xenografts; assay: Cyclophosphamide resistant patient-derived Ewing sarcoma xenografts; assay type: in vivo, NSG mice; conditions: cyclophosphamide MTD 70mg/kg i.p. q2d for 3 doses
Method: Patient derived xenografts were established from Ewing sarcoma patients who progressed through first line chemotherapy that included cyclophosphamide, doxorubicin, vincristine, ifosfamide and etoposide (PS3). When these Ewing sarcoma xenografts (n = 10) reached 100mm^3, they were randomized to control and treatment groups.
All mouse experiments were performed at the animal core facility at MSKCC under an approved protocol following the IACUC guidelines. Five to seven-week-old NOD/SCID IL2R gamma null (NSG) mice (bred at the Mouse Genetics Core Facility, MSKCC) were used for in vivo experiments. All mouse experiments were done following the IACUC guidelines at the animal facility at MSKCC. Tumors were induced using 10^6 A673 cells or A204 cells in 0.2ml 1:1 cellular medium, Matrigel matrix (BD Bioscience, Bedford, MA) and injected subcutaneously (s.q) into the right flank. The tumors were measured every 3 d with a caliper, and the diameters were recorded. Tumor volume was calculated by the formula a^2 b/2 where ‘a’ is the smallest and ‘b’ is the largest diameter. When the tumors reached 100mm^3, we randomized mice into control and drug treatment groups. Treatment groups received BO-1055 by tail vein injection at 10mg/kg, 20mg/kg and 30mg/kg q2d x 5 doses for mice bearing A673 xenografts. BO-1055 was given at 30mg/kg q2d x 5 doses for mice bearing A204 xenografts. […]

CCRF-CEM/Taxol cells = system: CCRF-CEM/Taxol cells; set-up: method as in PMID 21106377; conditions: CCRF-CEM/Taxol ref 6; cited from earlier work

SMILES: O=P1(N(CCCl)CCCl)NC(OO)CCO1 (stereo not drawn) [4-HC, 4-hydroperoxy cyclophosphamide, reference compound]
- concentration giving complete inhibition of spheroids (A673 spheroids): 5 µM

SMILES: O=P1(N(CCCl)CCCl)NCCCO1 (stereo not drawn) [cyclophosphamide, reference compound]
- tumor growth [1]: not inhibited

SMILES: CC(=O)O[C@H]1C(=O)[C@@]2(C)[C@H]([C@H](OC(=O)c3ccccc3)[C@]3(O)C[C@H](OC(=O)[C@H](O)[C@@H](NC(=O)c4ccccc4)c4ccccc4)C(C)=C1C3(C)C)[C@]1(OC(C)=O)CO[C@@H]1C[C@@H]2O [taxol, reference compound]
- resistance of CCRF-CEM/Taxol cells (CCRF-CEM/Taxol cells): 330 fold
